Test results published in patent US4558068A, “Spirobenzofuranones and their use in treating peptic ulcers” (Takeda Chemical Industries, Ltd., priority 1983, dated 1985).

What was measured:
stress ulcer = assay: Stress ulcer inhibiting effect, water immersion method (Takagi and Okabe); assay type: in vivo; conditions: rats, 50 mg/kg, i.p.; **: P < 0.05
From the text: The stress ulcer inhibiting effect of the drug was investigated in rats in accordance with the water immersion method described by K. Takagi and S. Okabe, Jap. J. Pharmacol. 18, 9, 1968.

ICR mice = assay: Acute oral toxicity, single administration, 7 days observation; assay type: in vivo; conditions: 500 mg/kg orally once

Question: `O=C(O)C(O)c1ccc2c(c1)C(=O)C1(CC1)O2` (centres unmarked) was tested. Which “% Inhibition (stress ulcer)” value (stress ulcer) did it give?
Answer: 56%

Question: And the “death during observation period” value (ICR mice)?
Answer: no death was found
